Source: ChEMBL document CHEMBL1201862, “PubChem BioAssay data set” (2004)
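Where inhibition never reached the appropriate level, the endpoint shown equals the highest concentration tested. Otherwise, values were interpolated linearly from a five-concentration, 48-hour dose response in 96-well plates. GI50 is the concentration that inhibits growth by half.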 Activity calls are given as the source filed them. Cut-off read from the data, not from the text of the source: active = GI50 up to about 1.1 µM and inactive = higher.

Experiments:
Test in all cases: growth of human tumour cells (NCI), 48 h
CAKI-1 = tested on: CAKI-1
COLO 205 = tested on: COLO 205
HCT-116 = tested on: HCT-116
HOP-92 = tested on: HOP-92
HT-29 = tested on: HT-29
LOX IMVI = tested on: LOX IMVI
M14 = tested on: M14
MDA-MB-435 = tested on: MDA-MB-435
MDA-N = tested on: MDA-N
NCI-H23 = tested on: NCI-H23
NCI-H522 = tested on: NCI-H522
PC-3 = tested on: PC-3
RPMI-8226 = tested on: RPMI-8226
SF-295 = tested on: SF-295
SF-539 = tested on: SF-539
SK-MEL-2 = tested on: SK-MEL-2
SR = tested on: SR
TK-10 = tested on: TK-10
NCI-H226 = tested on: NCI-H226
A498 = tested on: A498

Measured: GI50

O=C(CCN1CCOCC1)Nc1ccc2sc3ccccc3c(=O)c2n1
inactive: CAKI-1 23.6 µM | COLO 205 25 µM | HCT-116 23 µM | HOP-92 45.3 µM | HT-29 > 100 µM | LOX IMVI 19.6 µM | M14 37.8 µM | MDA-MB-435 42.4 µM | MDA-N 23.3 µM | NCI-H23 49.1 µM | NCI-H522 13.2 µM | PC-3 18.2 µM | RPMI-8226 28 µM | SF-295 82.4 µM | SF-539 60.5 µM | SK-MEL-2 64 µM | SR 44.3 µM | TK-10 37.4 µM

Cn1c2ccccc2c(=O)c2ccc(Cl)cc21
inactive: COLO 205 > 10 µM | HCT-116 > 10 µM | HOP-92 > 10 µM | HT-29 > 10 µM | LOX IMVI > 10 µM | MDA-MB-435 > 10 µM | MDA-N > 10 µM | NCI-H23 > 10 µM | PC-3 > 10 µM | RPMI-8226 > 10 µM | SF-295 > 10 µM | SF-539 2.51 µM | SK-MEL-2 > 10 µM | SR > 10 µM | TK-10 7.5 µM

N#CCCN(CCCN(C(=O)Nc1ccccc1)c1ccccc1)C(=O)Nc1ccccc1
inactive: CAKI-1 15 µM | COLO 205 > 100 µM | HCT-116 > 100 µM | HOP-92 71.1 µM | HT-29 > 100 µM | LOX IMVI > 100 µM | M14 > 100 µM | MDA-MB-435 > 100 µM | MDA-N > 100 µM | NCI-H226 > 100 µM | NCI-H23 61.7 µM | NCI-H522 > 100 µM | PC-3 73.3 µM | RPMI-8226 53 µM | SF-295 > 100 µM | SF-539 > 100 µM | SK-MEL-2 > 100 µM | SR > 100 µM | TK-10 > 100 µM

CCOC(=O)c1nc2ccccc2nc1Nc1cc(OC)c(OC)c(OC)c1
inactive: CAKI-1 > 100 µM | COLO 205 > 100 µM | HCT-116 > 100 µM | HOP-92 > 100 µM | HT-29 > 100 µM | M14 > 100 µM | MDA-MB-435 > 100 µM | MDA-N > 100 µM | NCI-H23 > 100 µM | NCI-H522 > 100 µM | RPMI-8226 > 100 µM | SF-295 > 100 µM | SF-539 > 100 µM | SK-MEL-2 > 100 µM | SR > 100 µM | TK-10 > 10 µM

COc1ccc(CNc2nc3cc(C(F)(F)F)ccc3nc2-c2ccccc2)cc1OC
inactive: CAKI-1 18 µM | COLO 205 35.1 µM | HCT-116 30.3 µM | HT-29 21.1 µM | LOX IMVI 24.7 µM | M14 49.3 µM | MDA-MB-435 25.5 µM | MDA-N 37.2 µM | NCI-H23 20.8 µM | NCI-H522 36.1 µM | PC-3 28.2 µM | SF-295 29.4 µM | SF-539 45.9 µM | SK-MEL-2 68.9 µM | SR 15.3 µM | TK-10 53.2 µM

COc1cc(C2SCC(=O)N2c2ccc(NC(=O)c3ccc(N4C(=O)CSC4c4cc(OC)c(OC)c(OC)c4)cc3)cc2)cc(OC)c1OC (configuration not stated)
inactive: CAKI-1 > 100 µM | COLO 205 > 100 µM | HCT-116 35.1 µM | HOP-92 16.4 µM | HT-29 93.1 µM | LOX IMVI 31.8 µM | M14 73.1 µM | MDA-MB-435 20.6 µM | MDA-N 23.1 µM | NCI-H23 49.4 µM | NCI-H522 40.2 µM | PC-3 58.3 µM | RPMI-8226 28.9 µM | SF-295 29.3 µM | SF-539 42.7 µM | SK-MEL-2 91.6 µM | TK-10 > 100 µM

O=C1CCC2(CC1)Cc1ccccc1C2O (configuration not stated)
inactive: CAKI-1 > 100 µM | COLO 205 > 100 µM | HCT-116 > 100 µM | HT-29 > 100 µM | LOX IMVI > 100 µM | M14 > 100 µM | MDA-N > 100 µM | NCI-H226 > 100 µM | NCI-H23 > 100 µM | NCI-H522 > 100 µM | PC-3 > 100 µM | SF-295 > 100 µM | SF-539 > 100 µM | SK-MEL-2 > 100 µM | SR > 100 µM | TK-10 > 100 µM

O=C1CCC2(c3ccc(Cl)cc3)Nc3ccncc3N12 (configuration not stated)
inactive: HCT-116 > 10 µM | HOP-92 > 10 µM | HT-29 > 10 µM | LOX IMVI > 10 µM | M14 > 10 µM | MDA-MB-435 > 10 µM | MDA-N > 10 µM | NCI-H226 > 10 µM | NCI-H23 > 10 µM | NCI-H522 > 10 µM | PC-3 > 10 µM | SF-295 > 10 µM | SF-539 > 10 µM | SK-MEL-2 > 10 µM | SR > 10 µM | TK-10 > 10 µM

O=C(Cn1c(=O)oc2ccc(C(=O)c3cccc(Cl)c3)cc21)c1ccccc1
inactive: A498 33 µM | CAKI-1 > 100 µM | COLO 205 33.9 µM | HCT-116 > 10 µM | HOP-92 7.14 µM | HT-29 29.9 µM | LOX IMVI > 100 µM | M14 > 100 µM | MDA-MB-435 > 100 µM | NCI-H226 40.9 µM | NCI-H23 > 100 µM | NCI-H522 > 100 µM | PC-3 > 100 µM | RPMI-8226 > 100 µM | SF-295 44.6 µM | SF-539 > 100 µM | SK-MEL-2 67.3 µM | SR 36.3 µM | TK-10 > 100 µM

COc1ccc(N2C(=O)/C(=C/c3ccc(N(CCC#N)CCC#N)cc3)N=C2c2ccccc2)c(OC)c1
inactive: CAKI-1 > 100 µM | COLO 205 > 100 µM | HCT-116 69.2 µM | HOP-92 31.1 µM | HT-29 > 100 µM | M14 > 100 µM | MDA-MB-435 > 100 µM | MDA-N > 100 µM | NCI-H226 27.4 µM | NCI-H23 60.3 µM | NCI-H522 22 µM | RPMI-8226 29 µM | SF-295 > 100 µM | SF-539 40.4 µM | SR 22.4 µM | TK-10 > 100 µM

N#Cc1nc(C(CO)N(Cc2ccccc2)C(=O)O)oc1N (configuration not stated)
inactive: A498 > 100 µM | CAKI-1 > 100 µM | COLO 205 > 100 µM | HCT-116 > 100 µM | HOP-92 > 100 µM | HT-29 > 100 µM | LOX IMVI > 100 µM | M14 > 100 µM | MDA-MB-435 > 100 µM | NCI-H226 > 100 µM | NCI-H23 > 100 µM | NCI-H522 12.4 µM | PC-3 > 100 µM | RPMI-8226 > 100 µM | SF-295 > 100 µM | SF-539 > 100 µM | SK-MEL-2 > 100 µM | SR > 100 µM | TK-10 > 100 µM
